Experimental data published in patent publication US20250304620A1, “ANTIMICROBIAL PEPTIDE AND APPLICATION THEREOF” (priority 2023, published 2025).
Marks after values point to notes of the source that are not given here. Non-standard residues stand in square brackets, D forms with d. Residues, ends and D or L forms follow the SMILES beside them. d2Nal = N[C@H](Cc1ccc2ccccc2c1)C(=O)O

Key:
[1] = test system: Pseudomonas aeruginosa ATCC 27853; experiment: Injectable formulations on mice infected with peritonitis; format: in vivo, ICR mice; details: twice a day for 3 days; for Number of mice that died on each day after infection: day 1 / Number of mice that died on each day after infection: day 2 / Number of mice that died on each day after infection: day 3 / Number of mice that died on each day after infection: day 4 / Number of mice that died on each day after infection: day 5 / Average survival times (Days): n = 10; for Average survival times (Days): observed for 14 d
Summary of the method: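 ICR mice of both sexes (10 per group) infected intraperitoneally with 0.2 mL P. aeruginosa ATCC 27853 at 1×10^9 CFU/mL. Injectable formulations dosed by body weight via tail vein twice daily for 3 days; deaths and survival time recorded over 14 d.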

[2] = test system: rabbit red blood cells; format: cell-based; details: red cells of rabbit, 1 h
[3] = test system: Escherichia coli ATCC 25922; experiment: Oral formulations on mice with systemic bacterial infection; format: in vivo, ICR mice; details: three times a day for 7 days; for Number of mice that died on each day after infection: day 4 / Number of mice that died on each day after infection: day 5 / Number of mice that died on each day after infection: day 6 / Number of mice that died on each day after infection: day 7 / Number of mice that died on each day after infection: day 8 / Average survival times (Days): n = 10; for Average survival times (Days): observed for 14 d
Summary of the method: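 ICR mice of both sexes, 10 per group, infected i.p. with 0.2 mL E. coli ATCC 25922 at 1×10^7 CFU/mL. Compounds gavaged by body weight immediately after infection, three times daily for 7 days; deaths and survival time recorded over 14 d observation.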

CC(=O)N[C@H](CCCNC(=N)N)C(=O)N[C@H](CCCCN)C(=O)N[C@H](CC(C)C)C(=O)N[C@H](CC(C)C)C(=O)N[C@H](Cc1ccc2ccccc2c1)C(=O)N[C@H](CCCNC(=N)N)C(=O)N[C@H](CC(C)C)C(=O)N[C@H](CCCCN)C(=O)N[C@H](Cc1ccc2ccccc2c1)C(=O)N[C@H](CCCNC(=N)N)C(=O)N[C@H](CCCCN)C(N)=O [LV-20] (Ac-[dR][dK][dL][dL][d2Nal][dR][dL][dK][d2Nal][dR][dK]-NH2)
Number of mice that died on each day after infection: day 1 ([1]; 0.2 mg/kg via tail vein): 2 Mouse
Number of mice that died on each day after infection: day 2 ([1]; 0.2 mg/kg via tail vein): 1 Mouse
Number of mice that died on each day after infection: day 3 ([1]; 0.2 mg/kg via tail vein): 2 Mouse
Number of mice that died on each day after infection: day 4 ([1]; 0.2 mg/kg via tail vein): 1 Mouse
Number of mice that died on each day after infection: day 5 ([1]; 0.2 mg/kg via tail vein): 0 Mouse
Average survival times (Days) ([1]; 0.2 mg/kg via tail vein): 7.0** Days
Number of mice that died on each day after infection: day 1 ([1]; 1 mg/kg via tail vein): 1 Mouse
Number of mice that died on each day after infection: day 2 ([1]; 1 mg/kg via tail vein): 1 Mouse
Number of mice that died on each day after infection: day 3 ([1]; 1 mg/kg via tail vein): 1 Mouse
Number of mice that died on each day after infection: day 4 ([1]; 1 mg/kg via tail vein): 0 Mouse
Number of mice that died on each day after infection: day 5 ([1]; 1 mg/kg via tail vein): 0 Mouse
Average survival times (Days) ([1]; 1 mg/kg via tail vein): 10.4**** Days
Number of mice that died on each day after infection: day 1 ([1]; 5 mg/kg via tail vein): 1 Mouse
Number of mice that died on each day after infection: day 2 ([1]; 5 mg/kg via tail vein): 2 Mouse
Number of mice that died on each day after infection: day 3 ([1]; 5 mg/kg via tail vein): 0 Mouse
Number of mice that died on each day after infection: day 4 ([1]; 5 mg/kg via tail vein): 0 Mouse
Number of mice that died on each day after infection: day 5 ([1]; 5 mg/kg via tail vein): 0 Mouse
Average survival times (Days) ([1]; 5 mg/kg via tail vein): 10.3**** Days
survival time of mice infected with Pseudomonas aeruginosa ([1]; tail vein, observed 14 d): superior to those of the Levofloxacin group
MHC (minimum hemolytic concentration, lowest concentration causing 10% hemolysis) [2]: >1000 µg/mL
Number of mice that died on each day after infection: day 4 ([3]; 0.2 mg/kg gavage): 1 Mouse
Number of mice that died on each day after infection: day 5 ([3]; 0.2 mg/kg gavage): 1 Mouse
Number of mice that died on each day after infection: day 6 ([3]; 0.2 mg/kg gavage): 2 Mouse
Number of mice that died on each day after infection: day 7 ([3]; 0.2 mg/kg gavage): 2 Mouse
Number of mice that died on each day after infection: day 8 ([3]; 0.2 mg/kg gavage): 0 Mouse
Average survival times (Days) ([3]; 0.2 mg/kg gavage): 9.1** Days
Number of mice that died on each day after infection: day 4 ([3]; 1 mg/kg gavage): 1 Mouse
Number of mice that died on each day after infection: day 5 ([3]; 1 mg/kg gavage): 1 Mouse
Number of mice that died on each day after infection: day 6 ([3]; 1 mg/kg gavage): 0 Mouse
Number of mice that died on each day after infection: day 7 ([3]; 1 mg/kg gavage): 1 Mouse
Number of mice that died on each day after infection: day 8 ([3]; 1 mg/kg gavage): 0 Mouse
Average survival times (Days) ([3]; 1 mg/kg gavage): 11.4**** Days
Number of mice that died on each day after infection: day 4 ([3]; 5 mg/kg gavage): 2 Mouse
Number of mice that died on each day after infection: day 5 ([3]; 5 mg/kg gavage): 0 Mouse
Number of mice that died on each day after infection: day 6 ([3]; 5 mg/kg gavage): 2 Mouse
Number of mice that died on each day after infection: day 7 ([3]; 5 mg/kg gavage): 0 Mouse
Number of mice that died on each day after infection: day 8 ([3]; 5 mg/kg gavage): 0 Mouse
Average survival times (Days) ([3]; 5 mg/kg gavage): 10.4*** Days
survival time of mice infected with Escherichia coli ([3]; gavage, observed 14 d): superior to those of the Levofloxacin group

CC(=O)N[C@H](CCCNC(=N)N)C(=O)N[C@H](CCCNC(=N)N)C(=O)N[C@H](CC(C)C)C(=O)N[C@H](CC(C)C)C(=O)N[C@H](Cc1ccc2ccccc2c1)C(=O)N[C@H](CCCNC(=N)N)C(=O)N[C@H](CC(C)C)C(=O)N[C@H](CCCCN)C(=O)N[C@H](Cc1ccc2ccccc2c1)C(=O)N[C@H](CCCNC(=N)N)C(=O)N[C@H](CCCCN)C(N)=O [LV-21] (Ac-[dR][dR][dL][dL][d2Nal][dR][dL][dK][d2Nal][dR][dK]-NH2)
Number of mice that died on each day after infection: day 1 ([1]; 1 mg/kg via tail vein): 2 Mouse
Number of mice that died on each day after infection: day 2 ([1]; 1 mg/kg via tail vein): 0 Mouse
Number of mice that died on each day after infection: day 3 ([1]; 1 mg/kg via tail vein): 2 Mouse
Number of mice that died on each day after infection: day 4 ([1]; 1 mg/kg via tail vein): 0 Mouse
Number of mice that died on each day after infection: day 5 ([1]; 1 mg/kg via tail vein): 0 Mouse
Average survival times (Days) ([1]; 1 mg/kg via tail vein): 9.2*** Days
MHC (minimum hemolytic concentration, lowest concentration causing 10% hemolysis) [2]: >1000 µg/mL
Number of mice that died on each day after infection: day 4 ([3]; 1 mg/kg gavage): 1 Mouse
Number of mice that died on each day after infection: day 5 ([3]; 1 mg/kg gavage): 2 Mouse
Number of mice that died on each day after infection: day 6 ([3]; 1 mg/kg gavage): 1 Mouse
Number of mice that died on each day after infection: day 7 ([3]; 1 mg/kg gavage): 0 Mouse
Number of mice that died on each day after infection: day 8 ([3]; 1 mg/kg gavage): 1 Mouse
Average survival times (Days) ([3]; 1 mg/kg gavage): 9.8** Days

CC(=O)N[C@H](CCCNC(=N)N)C(=O)N[C@H](CCCCN)C(=O)N[C@H](CC(C)C)C(=O)N[C@H](CC(C)C)C(=O)N[C@H](Cc1ccc2ccccc2c1)C(=O)N[C@H](CCCNC(=N)N)C(=O)N[C@H](CC(C)C)C(=O)N[C@H](CCCCN)C(=O)N[C@H](Cc1ccc2ccccc2c1)C(=O)N[C@H](CCCNC(=N)N)C(=O)N[C@H](CCCNC(=N)N)C(N)=O [LV-22] (Ac-[dR][dK][dL][dL][d2Nal][dR][dL][dK][d2Nal][dR][dR]-NH2)
Number of mice that died on each day after infection: day 1 ([1]; 1 mg/kg via tail vein): 1 Mouse
Number of mice that died on each day after infection: day 2 ([1]; 1 mg/kg via tail vein): 1 Mouse
Number of mice that died on each day after infection: day 3 ([1]; 1 mg/kg via tail vein): 0 Mouse
Number of mice that died on each day after infection: day 4 ([1]; 1 mg/kg via tail vein): 1 Mouse
Number of mice that died on each day after infection: day 5 ([1]; 1 mg/kg via tail vein): 1 Mouse
Average survival times (Days) ([1]; 1 mg/kg via tail vein): 9.6*** Days
MHC (minimum hemolytic concentration, lowest concentration causing 10% hemolysis) [2]: >1000 µg/mL
Number of mice that died on each day after infection: day 4 ([3]; 1 mg/kg gavage): 0 Mouse
Number of mice that died on each day after infection: day 5 ([3]; 1 mg/kg gavage): 2 Mouse
Number of mice that died on each day after infection: day 6 ([3]; 1 mg/kg gavage): 1 Mouse
Number of mice that died on each day after infection: day 7 ([3]; 1 mg/kg gavage): 1 Mouse
Number of mice that died on each day after infection: day 8 ([3]; 1 mg/kg gavage): 2 Mouse
Average survival times (Days) ([3]; 1 mg/kg gavage): 9.5** Days

CC(=O)N[C@H](CCCCN)C(=O)N[C@H](CCCNC(=N)N)C(=O)N[C@H](CC(C)C)C(=O)N[C@H](CC(C)C)C(=O)N[C@H](Cc1ccc2ccccc2c1)C(=O)N[C@H](CCCCN)C(=O)N[C@H](CC(C)C)C(=O)N[C@H](CCCCN)C(=O)N[C@H](Cc1ccc2ccccc2c1)C(=O)N[C@H](CCCCN)C(=O)N[C@H](CCCNC(=N)N)C(N)=O [LV-23] (Ac-[dK][dR][dL][dL][d2Nal][dK][dL][dK][d2Nal][dK][dR]-NH2)
Number of mice that died on each day after infection: day 1 ([1]; 1 mg/kg via tail vein): 1 Mouse
Number of mice that died on each day after infection: day 2 ([1]; 1 mg/kg via tail vein): 1 Mouse
Number of mice that died on each day after infection: day 3 ([1]; 1 mg/kg via tail vein): 0 Mouse
Number of mice that died on each day after infection: day 4 ([1]; 1 mg/kg via tail vein): 2 Mouse
Number of mice that died on each day after infection: day 5 ([1]; 1 mg/kg via tail vein): 0 Mouse
Average survival times (Days) ([1]; 1 mg/kg via tail vein): 9.5*** Days
MHC (minimum hemolytic concentration, lowest concentration causing 10% hemolysis) [2]: >1000 µg/mL
Number of mice that died on each day after infection: day 4 ([3]; 1 mg/kg gavage): 2 Mouse
Number of mice that died on each day after infection: day 5 ([3]; 1 mg/kg gavage): 1 Mouse
Number of mice that died on each day after infection: day 6 ([3]; 1 mg/kg gavage): 1 Mouse
Number of mice that died on each day after infection: day 7 ([3]; 1 mg/kg gavage): 0 Mouse
Number of mice that died on each day after infection: day 8 ([3]; 1 mg/kg gavage): 1 Mouse
Average survival times (Days) ([3]; 1 mg/kg gavage): 9.7** Days

CC(=O)N[C@H](CCCNC(=N)N)C(=O)N[C@H](CCCNC(=N)N)C(=O)N[C@H](CC(C)C)C(=O)N[C@H](CC(C)C)C(=O)N[C@H](Cc1ccc2ccccc2c1)C(=O)N[C@H](CCCCN)C(=O)N[C@H](CC(C)C)C(=O)N[C@H](CCCCN)C(=O)N[C@H](Cc1ccc2ccccc2c1)C(=O)N[C@H](CCCCN)C(=O)N[C@H](CCCNC(=N)N)C(N)=O [LV-24] (Ac-[dR][dR][dL][dL][d2Nal][dK][dL][dK][d2Nal][dK][dR]-NH2)
Number of mice that died on each day after infection: day 1 ([1]; 1 mg/kg via tail vein): 1 Mouse
Number of mice that died on each day after infection: day 2 ([1]; 1 mg/kg via tail vein): 2 Mouse
Number of mice that died on each day after infection: day 3 ([1]; 1 mg/kg via tail vein): 0 Mouse
Number of mice that died on each day after infection: day 4 ([1]; 1 mg/kg via tail vein): 0 Mouse
Number of mice that died on each day after infection: day 5 ([1]; 1 mg/kg via tail vein): 1 Mouse
Average survival times (Days) ([1]; 1 mg/kg via tail vein): 9.4*** Days
MHC (minimum hemolytic concentration, lowest concentration causing 10% hemolysis) [2]: >1000 µg/mL
Number of mice that died on each day after infection: day 4 ([3]; 1 mg/kg gavage): 1 Mouse
Number of mice that died on each day after infection: day 5 ([3]; 1 mg/kg gavage): 1 Mouse
Number of mice that died on each day after infection: day 6 ([3]; 1 mg/kg gavage): 0 Mouse
Number of mice that died on each day after infection: day 7 ([3]; 1 mg/kg gavage): 2 Mouse
Number of mice that died on each day after infection: day 8 ([3]; 1 mg/kg gavage): 1 Mouse
Average survival times (Days) ([3]; 1 mg/kg gavage): 10.1*** Days
